Assay [1] can be described thus: DRUGMATRIX: beta-Lactamase enzyme inhibition (substrate: Nitrocefin). The arrangement: species or system Bacillus cereus. The settings on record: Not Active = under 50% inhibition at 10 µM.
The nature of assay [2]: DRUGMATRIX: Calcium Channel Type L, Dihydropyridine radioligand binding (ligand: [3H] Nitrendipine). The class given is cell membranes, Rattus norvegicus, Wistar, Cerebral cortex, Membrane. The settings on record: Not Active = under 50% inhibition at 10 µM.
A short description of assay [3]: DRUGMATRIX: Sigma2 radioligand binding (ligand: [3H] Ifenprodil). The class given is cell membranes, Rattus norvegicus, Wistar, Brain, Membrane. The settings on record: Not Active = under 50% inhibition at 10 µM.
A short description of assay [4]: DRUGMATRIX: Tumor Necrosis Factor (TNF), Non-Selective radioligand binding (ligand: [125I] TNF-alpha). The class given is cell membranes, Membrane. Conditions: u-937; Not Active = under 50% inhibition at 10 µM.
Assay [5] is described as follows: DRUGMATRIX: Calcium Channel Type L, Phenylalkylamine radioligand binding (ligand: [3H] (-)-Desmethoxyverapamil (D-888)). The class given is cell membranes, Rattus norvegicus, Wistar, Brain, Membrane. The settings on record: Not Active = under 50% inhibition at 10 µM.
Assay [6] is described as follows: DRUGMATRIX: GABAA, Muscimol, Central radioligand binding (ligand: [3H] Muscimol). The class given is cell membranes, Rattus norvegicus, Wistar, Brain, Membrane. The settings on record: Not Active = under 50% inhibition at 10 µM.
Assay [7] can be described thus: DRUGMATRIX: Phorbol Ester radioligand binding (ligand: [3H] PDBu). The class given is cell membranes, Mus musculus, ICR, Brain, Membrane. Conditions: Not Active = under 50% inhibition at 10 µM.

The structures appear in SMILES notation.

Turning to `CCCCC(=O)N(Cc1ccc(-c2ccccc2-c2nnn[nH]2)cc1)[C@H](C(=O)O)C(C)C`, the IC50 entry in assay [1], in assay [2], in assay [3], in assay [4], in assay [5] and in assay [6] was “Not Active” each time. Also, in assay [7], the IC50 result is listed as “Not Active”. In addition, the Ki entry in assay [1], in assay [2], in assay [3], in assay [4], in assay [5] and in assay [6] was “Not Active” each time. Also, the Ki entry in assay [7] is given as “Not Active”.
On to `O=C(O)COc1ccc(C(=O)c2cccs2)c(Cl)c1Cl`, for which the IC50 entry in assay [1], in assay [2], in assay [3], in assay [4], in assay [5] and in assay [6] was “Not Active” each time. Also, the IC50 result in assay [7] is recorded as “Not Active”. Also, the inhibition constant Ki entry in assay [1], in assay [2], in assay [3], in assay [4], in assay [5] and in assay [6] was “Not Active” throughout. In addition, the Ki entry in assay [7] was “Not Active”.
On to `C[C@@](Cc1ccc(O)c(O)c1)(NN)C(=O)O.O` [CARBIDOPA], for which the IC50 entry in assay [1], in assay [2], in assay [3], in assay [4], in assay [5] and in assay [6] was “Not Active” each time. Also, the IC50 entry in assay [7] was “Not Active”. Further, the Ki entry in assay [1], in assay [2], in assay [3], in assay [4], in assay [5] and in assay [6] was “Not Active” in each case. The inhibition constant (Ki) entry in assay [7] was “Not Active”.
Regarding `O=C(O)CCCCC1CCSS1` (stereo not drawn) [LIPOIC ACID, ALPHA], the IC50 result in assay [1], in assay [2], in assay [3], in assay [4], in assay [5] and in assay [6] was “Not Active” in each case. For the same compound, the IC50 entry in assay [7] is listed as “Not Active”. The Ki entry in assay [1], in assay [2], in assay [3], in assay [4], in assay [5] and in assay [6] was “Not Active” each time. The Ki result in assay [7] is “Not Active”.
For the compound `C[C@]12C=CC(=O)C=C1CC[C@@H]1[C@@H]2C(=O)C[C@@]2(C)[C@H]1CC[C@]2(O)C(=O)CO` [PREDNISONE], the IC50 result in assay [1], in assay [2], in assay [3], in assay [4], in assay [5] and in assay [6] was “Not Active” throughout. Also, the IC50 entry in assay [7] was “Not Active”. Also, the Ki entry in assay [1], in assay [2], in assay [3], in assay [4], in assay [5] and in assay [6] was “Not Active” each time. Moreover, the inhibition constant Ki entry in assay [7] is “Not Active”.
As for `COC(=O)[C@H]1[C@H]2C[C@@H]3c4[nH]c5cc(OC)ccc5c4CCN3C[C@H]2C[C@@H](OC(=O)c2cc(OC)c(OC)c(OC)c2)[C@@H]1OC` [RESERPINE], the IC50 result was “Not Active” in assay [1]; 821 nM in assay [2] (read-out: IC50); “Not Active” in assay [3]; “Not Active” in assay [4]; 2050 nM in assay [5] (read-out: IC50); “Not Active” in assay [6]. Moreover, the IC50 result in assay [7] is given as “Not Active”. The Ki result in assay [1] is “Not Active”; in assay [2] (read-out: Ki), 528 nM; in assay [3], “Not Active”; in assay [4], “Not Active”; in assay [5] (read-out: Ki), 1990 nM; in assay [6] it was “Not Active”. In assay [7], the Ki result is “Not Active”.
`O=C(O)c1ccccc1O` [SALICYLIC ACID]: the IC50 result in assay [1], in assay [2], in assay [3], in assay [4], in assay [5] and in assay [6] was “Not Active” in each case. The IC50 result in assay [7] is “Not Active”. Also, the Ki entry in assay [1], in assay [2], in assay [3], in assay [4], in assay [5] and in assay [6] was “Not Active” in each case. Moreover, the Ki entry in assay [7] is “Not Active”.
For `CC1CCC(NC(=O)N(CCCl)N=O)CC1` (configuration not stated) [SEMUSTINE], the IC50 entry in assay [1], in assay [2], in assay [3], in assay [4], in assay [5] and in assay [6] was “Not Active” in each case. Moreover, in assay [7], the IC50 entry is listed as “Not Active”. Also, the Ki entry in assay [1], in assay [2], in assay [3], in assay [4], in assay [5] and in assay [6] was “Not Active” each time. Besides, the Ki result in assay [7] is reported as “Not Active”.
On to `O=C1C[C@@H]2OCC=C3CN4CC[C@]56c7ccccc7N1[C@H]5[C@H]2[C@H]3C[C@H]46` [STRYCHNINE], for which the IC50 entry in assay [1], in assay [2], in assay [3], in assay [4], in assay [5] and in assay [6] was “Not Active” throughout. Moreover, the IC50 result in assay [7] is recorded as “Not Active”. In addition, the Ki result in assay [1], in assay [2], in assay [3], in assay [4], in assay [5] and in assay [6] was “Not Active” throughout. The Ki result in assay [7] is recorded as “Not Active”.
Take `C[N+](C)(C)CCOC(=O)CCC(=O)OCC[N+](C)(C)C.[Cl-].[Cl-]` [SUCCINYLCHOLINE CHLORIDE]: the IC50 result in assay [1], in assay [2], in assay [3], in assay [4], in assay [5] and in assay [6] was “Not Active” throughout. In assay [7], the IC50 entry is listed as “Not Active”. The Ki entry in assay [1], in assay [2], in assay [3], in assay [4], in assay [5] and in assay [6] was “Not Active” in each case. Also, the Ki entry in assay [7] is reported as “Not Active”.
For the compound `Nc1ccc(S(=O)(=O)NC(=O)c2ccccc2)cc1` [SULFABENZAMIDE], the IC50 result in assay [1], in assay [2], in assay [3], in assay [4], in assay [5] and in assay [6] was “Not Active” each time. The IC50 entry in assay [7] is “Not Active”. In addition, the Ki result in assay [1], in assay [2], in assay [3], in assay [4], in assay [5] and in assay [6] was “Not Active” in each case. The Ki result in assay [7] is listed as “Not Active”.
As to `CCCCCCCCNC(C)C(O)c1ccc(SC(C)C)cc1` (configuration not stated) [SULOCTIDIL], the IC50 entry in assay [1] is “Not Active”; in assay [2] (read-out: IC50), 260 nM; in assay [3] (read-out: IC50), 21.4 nM; in assay [5] (read-out: IC50), 525 nM; in assay [6], “Not Active”; in assay [7], “Not Active”. For the same compound, the inhibition constant (Ki) result in assay [1] was “Not Active”; in assay [2] (read-out: Ki) it was 167 nM; in assay [3] (read-out: Ki) it was 13.2 nM; in assay [5] (read-out: Ki) it was 510 nM; in assay [6], “Not Active”; in assay [7], “Not Active”.
Consider `O=c1[nH]c(=O)n(C2CCCO2)cc1F` (configuration not stated) [TEGAFUR], for which the IC50 entry in assay [1], in assay [2], in assay [3], in assay [4], in assay [5] and in assay [6] was “Not Active” throughout. Besides, the IC50 result in assay [7] is listed as “Not Active”. Moreover, the Ki result in assay [1], in assay [2], in assay [3], in assay [4], in assay [5] and in assay [6] was “Not Active” throughout. Moreover, the Ki entry in assay [7] was “Not Active”.
`CC(=N)S` [THIOACETAMIDE]: the half-inhibitory concentration (IC50) result in assay [1], in assay [2], in assay [3], in assay [4], in assay [5] and in assay [6] was “Not Active” in each case. Moreover, the IC50 entry in assay [7] is “Not Active”. Further, the Ki result in assay [1], in assay [2], in assay [3], in assay [4], in assay [5] and in assay [6] was “Not Active” each time. Moreover, the Ki result in assay [7] is given as “Not Active”.
With `Cc1ccc(C(=O)c2ccc(CC(=O)O)n2C)cc1` [TOLMETIN], the IC50 entry in assay [1], in assay [2], in assay [3], in assay [4], in assay [5] and in assay [6] was “Not Active” in each case. In addition, the 50% inhibitory concentration (IC50) entry in assay [7] is given as “Not Active”. The Ki result in assay [1], in assay [2], in assay [3], in assay [4], in assay [5] and in assay [6] was “Not Active” throughout. For the same compound, in assay [7], the inhibition constant (Ki) entry is “Not Active”.
As to `CC(=O)OCC(COC(C)=O)OC(C)=O` [TRIACETIN], the IC50 result in assay [1], in assay [2], in assay [3], in assay [4], in assay [5] and in assay [6] was “Not Active” throughout. Also, in assay [7], the IC50 entry is recorded as “Not Active”. In addition, the Ki result in assay [1], in assay [2], in assay [3], in assay [4], in assay [5] and in assay [6] was “Not Active” each time. The Ki entry in assay [7] is recorded as “Not Active”.

As usually defined, the IC50 is the concentration at which inhibition is half-maximal. As a reminder, the Ki is the dissociation constant of the complex between target and ligand, obtained from inhibition or displacement.

Source of the values: ChEMBL document CHEMBL1909046, “DrugMatrix in vitro pharmacology data”.
